Results taken from US7973145B2, “Sulfonated sugar compounds, pharmaceutical compositions which contain the same, and methods of treating tumors with the same” (priority 2007, dated 2011).

What was measured:
[1] = test system: bone marrow cells (immature erythrocytes); test: Micronucleus test by rat intravenous administration; type: in vivo; settings: male SD rats
Experimental: Five male SD rats were assigned to each of the six groups (1) to (6): The test solutions for (1) to (5) contained a normal saline solution containing 10% CREMOPHOR EL as the solvents, and the above-described doses were administered to the rats twice in total for two consecutive days. To the positive control group, the above-described dose was administered once. About 24 hours after the administration, bone marrow smears were prepared. Two thousands of immature erythrocytes were counted for each individual, and the incidence of immature erythrocytes having a micronucleus was calculated. As the index of marrow proliferation suppression, the proportion of immature erythrocytes contained in 1000 erythrocytes was calculated. […] In addition, no influence was found on the marrow proliferation suppression in the test substance-administered group.

[2] = test system: human vascular endothelial cells and human fibrocytes; test: Tube formation inhibition test using vascular endothelial cell-fibrocyte cocultivation system (angiogenesis kit KZ-1000); type: cell-based; settings: FIG. 10, combined with 2 Gy radiation, calcium(salt)-substituted compound, 10 ng/ml VEGF-A
Experimental: Using a angiogenesis kit (KZ-1000) manufactured by Kurabo Industries Ltd., which is a cocultivation system for human vascular endothelial cells and human fibrocytes, the effects of αSQAP C10:0, αSQAP C14:0, αSQAP C18:0, αSQAP C22:0, βSQAP C18:0, and βSQAP C18:1 on tube formation were examined. Cultivation for tube formation using the kit was conducted according to the manufacturer's instruction manual.
Using a medium containing a final concentration of 10 ng/ml of VEGF-A and being designed specifically for angiogenesis, the respective SQAP compounds were prepared to have intended concentrations. On Day 1 of the cell cultivation, special media each containing SQAP compounds at the respective concentrations and DMSO (negative control) were added to the cultivation systems. The systems were cultivated for 30 minutes, and irradiated with 2 Gy of cobalt 60. Thereafter, on Days 4, 7, and 10 of the cultivation, the media were replaced with newly prepared special media containing SQAP or DMSO. The media were removed on Day 11 of the cultivation, fixed with 70% ethanol, and the formed tubes were stained with anti-human CD31 antibody. The stained figures were photographed under an optical microscope, and the quantity of tube formation was calculated by the image analysis. The angiogenesis index was calculated according to the manufacturer's instruction manual.

[3] = Solubility measurement in injectable water; type: physicochemical; settings: 1 g in 5 ml of injectable water
[4] = test system: SD rats; test: Single dose (acute) toxicity test; type: in vivo; settings: female and male SD rats, single dose via tail vein
Experimental: Using αSQAP C18:0, an acute toxicity test was conducted on rats. Five female and five male SD rats of 5 to 6 weeks old were assigned to each of the groups (1) to (7):
The test solution for (1) and (4) to (7) contained a normal saline solution containing 10% CREMOPHOR EL, (2) contained a normal saline solution containing 2.5% CREMOPHOR EL, and (3) contained a normal saline solution containing 5% CREMOPHOR EL as the solvents.

[5] = test system: Human colonic adenocarcinoma cells SW480; test: Antineoplastic effect test (drug alone), tumor-bearing mouse; type: in vivo, KSN nude mice; settings: Example VI, FIG. 9; calcium(salt)-substituted compound alone, intraperitoneally 20 mg/kg once a day Day 1 to Day 14
Experimental: Human colonic adenocarcinoma cells SW480 were transplanted into the right femoral region of KSN nude mice in a ratio of 2×10^6 cells per individual. After a tumor mass of about 50 mm^3 was formed in each individual, four mice were assigned to each of the two groups (1) and (2):
The drug was administered intraperitoneally from Day 1 to Day 14, 20 mg/kg once a day.

[6] = test system: Salmonella typhimurium and Escherichia coli indicator bacterial strains; test: Reverse mutation assay (Ames test); settings: 2 μg to 5000 μg per plate, presence or absence of S9 mix, all five strains
[7] = test system: Human esophageal squamous cell carcinoma cells TE-8; test: Radiosensitizing effect test, tumor-bearing mouse, human esophageal squamous cell carcinoma; type: in vivo, KSN nude mice
Experimental: (§1) The radiosensitizing effect was examined through tumor-bearing mouse experiment.
Human esophageal squamous cell carcinoma cells TE-8 were transplanted into the right femoral region of KSN nude mice in a ratio of 1×10^6 cells per individual. Subsequently, the mice were bred for about 14 days to form a tumor mass of about 150 mm^3 in each individual. Thereafter, four mice were assigned to each of the following groups (1) to (4):
(§2) The drug was administered from Day 1 to Day 5, 2 mg/kg once a day. The subjects were exposed to radiation emitted from an X-ray generator (HS-225, manufactured by Shimadzu Co., Ltd.) at a dose of 2 Gy on Day 1 and Day 4. The tumor volume was calculated according to the calculation formula: (minor axis)^2×major axis×0.5.
This experiment was conducted in the same manner as Example V-1, except that the drug dose administered from Day 1 to Day 5 was 1 mg/kg once a day, and the radiation dose was 4 Gy, and the tumor volume was measured.
Human esophageal squamous cell carcinoma cells TE-8 were transplanted into the right femoral region of KSN nude mice in a ratio of 1×10^6 cells per individual. After a tumor mass of about 50 mm^3 was formed in each individual, four mice were assigned to each of the four groups (1) to (4):
The drug was administered intraperitoneally from Day 1 to Day 5, 1 mg/kg once a day. The subjects were exposed to radiation emitted from an X-ray generator (HS-225, manufactured by Shimadzu Co., Ltd.) at a dose of 4 Gy on Day 1 and Day 4.

[8] = test system: Human colonic adenocarcinoma cells SW480; test: Radiosensitizing effect test, tumor-bearing mouse, human colonic adenocarcinoma; type: in vivo, KSN nude mice
Experimental: as §1
Human colonic adenocarcinoma cells SW480 were transplanted into the right femoral region of KSN nude mice in a ratio of 1×10^6 cells per individual. Subsequently, the mice were bred for about 14 days to form a tumor mass of about 150 mm^3 in each individual.
as §2
Human colonic adenocarcinoma cells SW480 were transplanted into the right femoral region of KSN nude mice in a ratio of 2×10^6 cells per individual. After a tumor mass of about 50 mm^3 was formed in each individual, four mice were assigned to each of the four groups (1) to (4):
The drug was administered from the tail vein from Day 1 to Day 5, 1 mg/kg once a day. The subjects were exposed to radiation emitted from an X-ray generator (HS-225, manufactured by Shimadzu Co., Ltd.) at a dose of 2 Gy on Day 1 and Day 4.

[9] = intravenous, 25 to 200 mg/kg twice for two consecutive days
[10] = final concentrations of 5 and 10 μM
[11] = final concentrations of 5, 10, and 20 μM
[12] = Examples V-5 and V-6, FIG. 7 and 8, calcium(salt)-substituted compound, intraperitoneally 1 mg/kg once a day Day 1 to Day 5 plus X-ray 4 Gy on Day 1 and Day 4

For “3-O-(6-sulfo-α-D-quinovopyranosyl)-1-O-stearoyl-propane-1,3-diol calcium salt [αSQAP C18:0 calcium salt]”, the “incidence of micronuclei (immature erythrocytes having a micronucleus) in comparison with the non-administered group” value ([1]; intravenous, 25, 50, 100, 200 mg/kg twice for two consecutive days, bone marrow about 24 hours after) was “no significant increase”, the “chromosomal aberration in bone marrow cells” value [1, 9] was “inducing no chromosomal aberration” and the “marrow proliferation suppression (proportion of immature erythrocytes in 1000 erythrocytes)” value [1, 9] was “no influence”.
In the case of `CCCCCCCC/C=C\CCCCCCCC(=O)OCCCO[C@@H]1O[C@H](CS(=O)(=O)[O-])[C@@H](O)[C@H](O)[C@H]1O.[Na+]` [βSQAP C18:1, 3-O-(6-sulfo-β-D-quinovopyranosyl)-1-O-oleoyl-propane-1,3-diol sodium salt], the tube formation [2, 10] is reported as “inhibited tube formation in a concentration-dependent manner”.
For `CCCCCCCCCCCCCCCCCC(=O)OCCCO[C@H]1O[C@H](CS(=O)(=O)[O-])[C@@H](O)[C@H](O)[C@H]1O.[Na+]` [αSQAP C18:0, 3-O-(6-sulfo-α-D-quinovopyranosyl)-1-O-stearoyl-propane-1,3-diol sodium salt], the “solubility evaluation by the criteria of the general rules Japanese Pharmacopeia” value ([3]; 25° C.) was “readily soluble”, the “dissolution in injectable water” value ([3]; strongly shaken at 25° C.) was “immediately dissolved” and the “mortality during the test period” value ([4]; 25 to 800 mg/kg, observed for two days) was “No individual died”. The lethal dose ([4]; estimated) was “higher than 800 mg/kg”, the “increase of the tumor volume in comparison with the non-administered group” value [5] was “markedly suppressed” and the mutagenicity [6] was “negative”. For the same compound, the “number of revertant colonies” value ([6]; calcium(salt)-substituted compound) was “did not increase”, the tube formation [2, 11] was “inhibited tube formation in a concentration-dependent manner” and the “suppression of the increase of the tumor volume compared with radiotherapy alone” value ([7]; Example V-1, FIG. 3, drug alone (un-irradiated), 2 mg/kg once a day Day 1 to Day 5, versus 2 Gy on Day 1 and Day 4 alone) was “at the same level”. The “increment of the tumor volume versus non-administered, un-irradiated group” value ([7]; Example V-1, FIG. 3, drug alone (un-irradiated), 2 mg/kg once a day Day 1 to Day 5, from about Day 10) was “fell below that in the (1) non-administered, un-irradiated group”, the “increase of the tumor volume, drug plus radiotherapy, in comparison with other groups” value (“increase of the tumor volume … with other groups” below) ([7]; Example V-2, FIG. 4, 1 mg/kg once a day Day 1 to Day 5 plus X-ray 4 Gy) was “most strongly suppressed” and the “increment in the tumor volume versus non-administered, un-irradiated group” value ([7]; Example V-2, FIG. 4, drug alone (un-irradiated), 1 mg/kg once a day Day 1 to Day 5) was “smaller than that in the (1) non-administered, un-irradiated group”. The “increase of the tumor volume … with other groups” value [7, 12] was “most suppressed”, the “increase of the tumor volume, drug plus radiotherapy” value ([8]; Example V-3, FIG. 5, 2 mg/kg once a day Day 1 to Day 5 plus X-ray 2 Gy on Day 1 and Day 4) was “markedly suppressed” and the “increase of the tumor volume … with other groups” value ([8]; Example V-4, FIG. 6, calcium(salt)-substituted compound, tail vein 1 mg/kg once a day Day 1 to Day 5 plus X-ray 2 Gy on Day 1 and Day 4) was “most suppressed”.
In the case of `CCCCCCCCCC(=O)OCCCO[C@H]1O[C@H](CS(=O)(=O)[O-])[C@@H](O)[C@H](O)[C@H]1O.[Na+]` [αSQAP C10:0, 3-O-(6-sulfo-α-D-quinovopyranosyl)-1-O-decanoyl-propane-1,3-diol sodium salt], the tube formation [2, 11] is reported as “inhibited tube formation in a concentration-dependent manner” and the “increase of the tumor volume … with other groups” value [7, 12] is reported as “most suppressed”.
With `CCCCCCCCCCCCCCCCCCCCCC(=O)OCCCO[C@H]1O[C@H](CS(=O)(=O)[O-])[C@@H](O)[C@H](O)[C@H]1O.[Na+]` [αSQAP C22:0, 3-O-(6-sulfo-α-D-quinovopyranosyl)-1-O-behenoyl-propane-1,3-diol sodium salt] the tube formation [2, 11] was “inhibited tube formation in a concentration-dependent manner”.
For `CCCCCCCCCCCCCCCCCC(=O)OCCCO[C@@H]1O[C@H](CS(=O)(=O)[O-])[C@@H](O)[C@H](O)[C@H]1O.[Na+]` [βSQAP C18:0, 3-O-(6-sulfo-β-D-quinovopyranosyl)-1-O-stearoyl-propane-1,3-diol sodium salt], the tube formation [2, 10] was “inhibited tube formation in a concentration-dependent manner”.
In the case of `CCCCCCCCCCCCCCCCCC(=O)OCC(O)CO[C@H]1O[C@H](CS(=O)(=O)[O-])[C@@H](O)[C@H](O)[C@H]1O.[Na+]` (stereo partly drawn) [αSQMG C18:0, 3-O-(6-sulfo-α-D-quinovopyranosyl)-1-O-stearoyl-glycerol sodium salt, reference compound], the “increase of the tumor volume … with other groups” value ([7]; Example V-1, FIG. 3, 2 mg/kg once a day Day 1 to Day 5 plus X-ray 2 Gy on Day 1 and Day 4) is reported as “most suppressed”.
With `CCCCCCCCCCCCCC(=O)OCCCO[C@H]1O[C@H](CS(=O)(=O)[O-])[C@@H](O)[C@H](O)[C@H]1O.[Na+]` [αSQAP C14:0, 3-O-(6-sulfo-α-D-quinovopyranosyl)-1-O-myristoyl-propane-1,3-diol sodium salt] the tube formation [2, 11] was “inhibited tube formation in a concentration-dependent manner”.
